In PubChem BioAssay AID856 (The Scripps Research Institute Molecular Screening Center, 2007) one finds IC50 data, which are given here for 77 compounds.

Each structure is given as a SMILES string. Several values for one entry are separate records, joined by “and”; a condition that tells them apart may be missing. Identical values can stand only once. Activity calls are given as the source filed them. No rule for the calls is given here.

The test system of the test is CRE-bla reporter cells, beta-lactamase FRET, antagonist mode. Description: inhibition of CRE beta-lactamase reporter – cell-based, beta-lactamase FRET, counter-screen for S1P2 antagonist project, dose response (AID 856).
Regarding `CCCC(=O)N1CCN(c2ccc(NC(=O)c3cc4ccccc4o3)cc2Cl)CC1`, the half-inhibitory concentration (IC50) is 2950 nM.
The same measure for `CN(C)C=NC(=O)c1sc2cc(C(F)(F)F)cnc2c1-c1cccs1`: > 40000 nM (inactive).
As to `CC(=O)Nc1cc(OC(C)=O)c2nonc2c1OC(C)=O`, the IC50 is 3340 nM.
As for `COC(=O)c1sc2cc(C(F)(F)F)cnc2c1-c1cccnc1`, the IC50 was > 40000 nM (inactive).
The same measure for `COc1ccc2c(c1)[nH]c1c(N3CCN(Cc4ccc5c(c4)OCO5)CC3)ncnc12`: 1400 nM.
As for `O=C(O)c1sc2cc(C(F)(F)F)cnc2c1-c1cccs1`, the figure is > 40000 nM (inactive).
As for `O=C(C#Cc1cccc([N+](=O)[O-])c1)c1ccccc1`, the figure is 2270 nM; as for `CCCCCCCCCn1c2c(c(=N)c3c1CCC3)CCC2`, 459 nM.
In the case of `COc1ccc(CS(=O)(=O)/C(Cl)=C(/Cl)C(=O)Nc2ccc(OC)nc2)cc1`, the IC50 was 1840 nM.
As for `Nc1nc(Cl)cc(N2CCC(c3cc(-c4ccc(Cl)cc4)n[nH]3)CC2)n1`, the figure is 1490 nM; as for `Cc1nc2c(=O)n(C)c(=O)nc-2n(C)n1`, 1270 nM; as for `O=C(O)c1sc2cc(C(F)(F)F)cnc2c1-c1ccco1`, > 40000 nM (inactive).
For the compound `CCOC(=O)C1C(=O)CC(C)(O)C(C(=O)OCC)C1c1ccccc1` (configuration not stated), the IC50 was > 50000 nM (inactive).
`Fc1ccc(-n2nnnc2-c2cnc(-c3cccs3)nc2C(F)(F)F)cc1`: the IC50 was 2920 nM.
The same measure for `CCOC(=O)N1CCN(C(=O)CSCC(=O)Nc2nc(-c3ccc(-c4ccccc4)cc3)cs2)CC1`: 873 nM; for `Cn1nc(-c2ccc(Cl)cc2)nc2c(=O)n(C)c(=O)nc1-2`: 634 nM.
Turning to `CCCCCCCCNc1ncnc2ccccc12`, the IC50 is 42 nM.
The same measure for `CCN1/C(=C\C=C\C2=[N+](CC)c3ccccc3C2(C)C)C(C)(C)c2ccccc21`: 64 nM; for `Cc1ccc(-n2c(-c3ccc(Br)cc3)c[n+]3c2CCc2ccc4cccnc4c2-3)cc1`: 1490 nM.
For `Cc1nn(-c2ccccc2)c2c1C(c1ccc(O)c(O)c1)N1C(=N2)C(Nc2ccccc2)=Nc2ccccc21` (configuration not stated), the IC50 was 10500 nM (inactive).
Regarding `O=C(NC(Nc1nc2ccc([N+](=O)[O-])cc2s1)(C(F)(F)F)C(F)(F)F)c1ccccc1`, the IC50 is 101 nM.
For `Cc1ccc(C(=O)OCn2ncc(Cl)c(Cl)c2=O)cc1`, the IC50 was 3080 nM.
As to `Cc1nc(-c2cccs2)sc1C(=O)Nc1ccc(F)cc1`, the IC50 was > 40000 nM (inactive).
`CC1=C/C(=N\OS(=O)(=O)c2ccccc2)C=CC1=O`: the IC50 was 2920 nM.
Take `COc1ccc(NC(=O)/C(Cl)=C(/Cl)S(=O)(=O)Cc2ccc(C)cc2)cn1`: the IC50 is 1430 nM.
Regarding `O=C(O)c1sc2cc(C(F)(F)F)cnc2c1-c1ccccn1`, the IC50 is > 40000 nM (inactive).
For the compound `CCC(NC(=O)Nc1nnc(C(F)(F)F)s1)(C(F)(F)F)C(F)(F)F`, the concentration for half-maximal inhibition (IC50) was 1260 nM.
For `COc1cccc(-c2nnc3n2N=C(C(C)(C)C)CS3)c1`, the IC50 is 1070 nM.
Turning to `COC(=O)C1CN(C#N)N(c2ccc(Cl)cc2)C12c1ccccc1-c1ccccc12` (configuration not stated), the half-maximal inhibitory concentration (IC50) was 607 nM.
The same measure for `O=C(OCn1ncc(Cl)c(Cl)c1=O)c1ccccc1Cl`: 2580 nM; for `O=C(Nc1ccc(S(=O)(=O)N2CCOCC2)cc1)c1ccc(CN2CCc3ccccc3C2)cc1`: 773 nM.
Consider `O=S1(=O)C=C(Sc2nc3cc(Cl)ccc3o2)c2ccccc21`, for which the IC50 is 4040 nM.
As for `O=S(=O)(C/C(=C/CO)S(=O)(=O)c1ccccc1)c1ccccc1`, the figure is 3710 nM; as for `Cc1cccc(NC2=Nc3ccccc3N3C2=Nc2c(c(C)nn2-c2ccccc2)C3c2ccc(O)c(O)c2)c1` (configuration not stated), 8000 nM; as for `CCCCCCCCCCn1c2c(c(=N)c3c1CCC3)CCC2`, 333 nM.
Regarding `COC(=O)c1sc2cc(C(F)(F)F)cnc2c1-c1ccccc1`, the IC50 was > 40000 nM (inactive).
Take `Cc1ccc2[nH]c3c(N4CCc5ccccc5C4)ncnc3c2c1`: the IC50 is 569 nM.
Turning to `CCN1/C(=C/c2ccc3ccccc3[n+]2CC)C=Cc2ccccc21`, the IC50 was 1080 nM.
Turning to `COC(=O)c1sc2cc(C(F)(F)F)cnc2c1-c1ccccn1`, the IC50 was > 40000 nM (inactive).
As for `O=C(OCn1ncc(Cl)c(Cl)c1=O)c1ccc(F)cc1`, the IC50 is 3810 nM.
On to `CN(C)C=NC(=O)c1sc2cc(C(F)(F)F)cnc2c1-c1ccccc1`, for which the IC50 was > 40000 nM (inactive).
Take `COc1ccccc1C(=O)Nc1nc(-c2ccc(S(=O)(=O)N3CCOCC3)cc2)cs1`: the IC50 is 2250 nM.
Consider `CCN(C(=O)c1ccc(C(C)(C)C)cc1)c1nnc(Cn2nnc3ccccc32)s1`, for which the IC50 was 1800 nM.
As for `CC1=C/C(=N\OS(=O)(=O)c2ccccc2)C(C)=CC1=O`, the figure is 2390 nM.
Turning to `CCn1c(=O)c(C(=O)Nc2nc3ccccc3[nH]2)c(O)c2ccccc21`, the IC50 is 29100 nM (inactive).
In the case of `FC(F)(F)c1cnc2c(-c3cccs3)c(-c3ncn[nH]3)sc2c1`, the IC50 is > 40000 nM (inactive).
Turning to `Cc1ccc(NC2=Nc3ccccc3N3C2=Nc2c(c(C)nn2-c2ccccc2)C3c2ccc(O)c(O)c2)cc1` (configuration not stated), the IC50 is 9980 nM.
On to `CC1=C(C)/C(=N\OS(=O)(=O)c2ccccc2)C=CC1=O`, for which the IC50 is 2650 nM.
As for `COc1ccc(NC(=O)/C(Cl)=C(/Cl)S(=O)Cc2ccccc2)cn1` (configuration not stated), the IC50 is 1280 nM.
The same measure for `Cc1ccsc1C(=O)Nc1ccc(F)cc1`: > 40000 nM (inactive); for `O=C(Nc1ccc(F)cc1)c1sc2cc(C(F)(F)F)cnc2c1-c1cccs1`: > 50 µM (inactive) and > 40 µM (inactive); for `N#CC(c1cccc(Cl)c1)c1ccc2c(C(F)(F)F)cc(C(F)(F)F)nc2n1` (configuration not stated): 90 nM.
Turning to `COC(=O)c1sc2cc(C(F)(F)F)cnc2c1-c1cccs1`, the IC50 was > 40000 nM (inactive).
In the case of `O=C(Nc1ccc(F)cc1)c1cccs1`, the IC50 was > 40000 nM (inactive).
In the case of `COc1ccc(NC(=O)/C(Cl)=C(/Cl)S(=O)Cc2ccc(C)cc2)cn1` (configuration not stated), the IC50 was 752 nM.
Regarding `Cc1ccc2[nH]c3c(N4CCCCCC4)ncnc3c2c1`, the IC50 is 1810 nM.
As to `O=C(O)c1sc2cc(C(F)(F)F)cnc2c1-c1cccnc1`, the IC50 is > 40000 nM (inactive).
On to `O=C(Nc1ccc(F)cc1)c1sccc1S(=O)(=O)Cc1cccc(C(F)(F)F)c1`, for which the IC50 is > 40000 nM (inactive).
As to `COc1ccc(OC)c(NC(=O)CSc2ncnc3c2cnn3-c2ccccc2Cl)c1`, the IC50 was 640 nM.
The same measure for `NC(=O)c1sc2cc(C(F)(F)F)cnc2c1-c1cccs1`: > 40000 nM (inactive); for `O=C(Nc1ccc(F)cc1)c1sc(-c2ccccc2)nc1C(F)(F)F`: > 40000 nM (inactive).
For the compound `COc1ccc(NC(=O)/C(Cl)=C(/Cl)S(=O)(=O)Cc2ccccc2)cn1`, the IC50 was 1560 nM.
As for `CCCCS(=O)(=O)/C=C\C=C/S(=O)(=O)CCCC`, the IC50 is 1960 nM.
`N#C/C(=C/c1ccc(N2CCCCCC2)o1)c1ccc(F)cc1`: the IC50 was 9670 nM.
Consider `Cc1ccc(-c2nn(-c3ccccc3)cc2/C=N/NC(=O)c2ccc(Br)o2)cc1`, for which the IC50 is 1820 nM.
As for `O=C(Nc1ccc(F)cc1)c1cc(-c2cccs2)nc2ccccc12`, the figure is > 40000 nM (inactive); as for `Cn1c(-c2c(N)n(CCCc3ccccc3)c3nc4ccccc4nc23)nc2ccccc21`, > 50000 nM (inactive); as for `O=C(O)c1sc2cc(C(F)(F)F)cnc2c1-c1ccccc1`, > 40000 nM (inactive).
On to `O=C(c1sc2cc(C(F)(F)F)cnc2c1-c1ccccc1)N1CCOCC1`, for which the IC50 is > 40000 nM (inactive).
The same measure for `Cc1n[nH]c(C)c1N1C(=O)c2cccc3c(Br)ccc(c23)C1=O`: 5750 nM; for `O=C(c1cc(NC(=O)C23CC4CC(CC(C4)C2)C3)cc(NC(=O)C23CC4CC(CC(C4)C2)C3)c1)N1CCCCC1`: 793 nM; for `Cn1c(-c2c(N)n(C3CCCC3)c3nc4ccccc4nc23)nc2ccccc21`: 2370 nM.
`Cn1c2c(c(=O)n(C)c1=O)C(C(F)(F)F)(C(F)(F)F)N=C(c1ccc(Cl)cc1)N2`: the IC50 is 1200 nM.
The same measure for `CCN(CC)c1ccc2c(Cl)c(Br)c(=O)oc2c1`: 4370 nM; for `Cc1cc(/C=N/n2cnnc2)c(C)n1-c1ccc(OCc2ccc(Cl)cc2)cc1`: 362 nM.
As for `FC(F)(F)c1cnc2c(-c3cccs3)csc2c1`, the figure is > 40000 nM (inactive); as for `CCOC(=O)c1cnc(-n2nc(C)cc2C)nc1NC1CCCCC1`, 1750 nM.
